90 compounds from ChEMBL document CHEMBL3507680, “University of Dundee, Gates Library screen for HepG2 cell viability” can be followed below.

A short description of this series: Human HepG2 cell viability assay in 384 well format. It counts as toxicity, cell-based. The arrangement: dose 125 nL, time 70.5 hour; cytotoxicity at 70.5 h: concentration not given beside the values. The settings on record: HepG2 cells, read-out: Inhibition.

As for `O=C(c1ccccn1)N1CCc2ncnc(N3CCOCC3)c2CC1`, the cytotoxicity at 70.5 h is -5.19%. Under `CC(C)CNC(=O)N1C[C@H]2CC[C@@]3(N=C(c4ccccc4)NC3=O)[C@H]2C1` stands -0.00686%; under `COCCn1cnc(-c2nc(C(=O)N3CCOCC3)c3ccccn23)c1`, 5.18%. Under `CC(=O)N1CCCC2(CN(Cc3ccccc3C(F)(F)F)CCO2)C1` (stereo not given) stands -2.98%; under `CC(=O)N1CCCC2(CN(Cc3ccncc3)CCO2)C1` (stereo not given), -1.7%. In the case of `CC(C)n1cnc(-c2nc(C(=O)N3CCN(C)CC3)c3ccccn23)c1` it was -2.41%. For the compound `CC(C)n1cnc(-c2nc(C(=O)N3CCCC3)c3ccccn23)c1`, the cytotoxicity at 70.5 h was -2.79%. Under `c1ccc(O[C@@H]2CC[C@H]3[C@H]2OCCN3Cc2ccsc2)nc1` stands 8.42%; under `O=C(C1CCOCC1)N1CCc2ncnc(-c3ccccc3)c2CC1`, 1.86%. Under `CCOc1ncnc2c1CCN(C(=O)c1cnccn1)CC2` stands 1.88%. In the case of `Cc1cnc(N2CC[C@@H]3CN(CCC(C)C)S(=O)(=O)[C@@H]3CC2)nc1`, the cytotoxicity at 70.5 h is -1.61%.

`O=C(c1ccnnc1)N1C[C@H]2CCC[C@@H](OCc3cccnc3)[C@@H]2C1`: the cytotoxicity at 70.5 h is -3.26%. On to `c1ccc(OCC2CC3(CCN(Cc4ccncc4)CC3)CO2)nc1` (stereo not given), for which the cytotoxicity at 70.5 h was -18.6%.

Turning to `O=S(=O)(C1CC1)N1CCC2(COCc3cnc(N4CCOCC4)nc32)C1` (stereo not given), the cytotoxicity at 70.5 h amounted to 4.94%.

Consider `O=C(c1ccco1)N1CCC2(CCOC2)C1` (stereo not given), for which the cytotoxicity at 70.5 h is -13.3%. Under `Cc1nc(CN2CCCn3c(nc(Cn4ccnc4)cc3=O)C2)cs1` stands -21.2%; under `CC(=O)N1CC[C@H]2OCC[C@@H](C(=O)N3CCCCO3)[C@@H]2C1`, -20.9%. Under `O=C([C@@H]1CCO[C@@H]2CCN(Cc3cccnc3)C[C@H]21)N1CCCCO1` stands -13.8%; under `O=C1CC[C@H]2[C@H](CCN2C(=O)C2CCCO2)N1CCN1CCCC1` (stereo not given in full), -21.6%. In the case of `O=C1CC[C@H]2[C@H](CCN2C(=O)C2CCCO2)N1Cc1ccncc1` (stereo not given in full) it was 7.56%. For `c1cncc(OCc2noc3c2CN(Cc2ccoc2)CC3)c1`, the cytotoxicity at 70.5 h was -15.9%. In the case of `CN(C)S(=O)(=O)N1CC[C@@H]2CN(Cc3cnn(C)c3)C[C@@H]2C1` it was 32.1%; in that of `O=C(COc1ccccc1)N1CCC[C@]2(C[C@H](OCC3CC3)CO2)C1`, -7.58%; in that of `CCO[C@@H]1CO[C@@]2(CCCN(C(=O)c3ccc(OC)c(F)c3)C2)C1`, 9.35%. As for `CS(=O)(=O)NC[C@]12COC[C@H]1CN(C(=O)c1ccoc1)C2`, the cytotoxicity at 70.5 h was -3.34%.

`O=C1CCCN1CC1CN(C(=O)CC2CCCC2)Cc2nccn2C1` (stereo not given): the cytotoxicity at 70.5 h is -8.43%. For `CCC1=N[C@@]2(CC[C@@H]3CN(S(=O)(=O)CC)C[C@@H]32)C(=O)N1CC(C)C`, the cytotoxicity at 70.5 h is -1.65%. In the case of `O=C(NCC1CC1)C1CN(C(=O)c2ccncc2)CC12CCOCC2` (stereo not given) it was 3.6%; in that of `O=C(NCC1OCCc2cn(CC3CC3)nc21)c1ccsc1` (stereo not given), 47.4%; in that of `Cn1cccc1CN1CCC2(CCCN(C(=O)Cc3cccnc3)C2)C1` (stereo not given), 24.8%. In the case of `c1csc(CN2CC[C@H]3C[C@H](c4ccncn4)O[C@@H]3C2)c1` it was -13.1%; in that of `Cn1cc(C(=O)N2C[C@@H]3COC[C@]3(COCc3cccnc3)C2)cn1`, -12.3%; in that of `COCCC(=O)N1C[C@@H]2COC[C@]2(COCc2cccnc2)C1`, -13.6%. In the case of `CNC(=O)c1cc2c(nc1NCC1CC1)CCN(S(=O)(=O)C1CC1)CC2` it was 2.84%; in that of `O=C(c1ccc[nH]1)N1CCCC2(CCN(c3ccsc3)C2=O)C1` (stereo not given), -11.6%; in that of `O=C(c1ccsc1)N1CC[C@H]2C[C@@H](c3nnc(C4CC4)o3)O[C@@H]2C1`, -12.7%. Take `Cc1nn2c(=O)/c(=C\c3cccs3)sc2nc1=O`: the cytotoxicity at 70.5 h is -5.48%.

In the case of `CCn1cc(CN(C)S(=O)(=O)c2ccc(C)c(C)c2)cn1`, the cytotoxicity at 70.5 h stood at 0.0869%. Take `COc1ccc(CCC(=O)N(C)Cc2c(C)nn(C)c2C)cc1`: the cytotoxicity at 70.5 h worked out at 1.57%. Under `CC(C(=O)NC1CCN(C)CC1)n1nc(C(F)(F)F)c(Cl)c1C1CC1` (stereo not given) stands 11.6%; under `Cc1nn(CC(=O)Nc2ccon2)cc1Br`, -10.2%; under `Fc1cccc(-c2nnn3c2COC(CNCc2cccs2)C3)c1` (stereo not given), 1.1%. Under `CNC(=O)[C@H]1C[C@@H]2CN(S(=O)(=O)c3ccc(OC)cc3)C[C@@H]2N1C` stands -1.32%; under `CNC(=O)[C@H]1C[C@@H]2CN(S(=O)(=O)c3ccc(C)c(F)c3)C[C@@H]2N1C`, -3.95%; under `O=C(Cc1ccccn1)N1CCc2ncnc(N3CCCC3)c2CC1`, -0.341%. Under `COCc1nnc2n1CCN(Cc1ccoc1)C2` stands -3.74%; under `Cc1ccsc1C(=O)N1CCCn2c(nc(CN(C)C)cc2=O)C1`, 8.58%. With `O=C(c1ccsc1)N1C[C@H]2CN(Cc3cccnc3)C(=O)[C@H]2C1`, the cytotoxicity at 70.5 h came to 4.1%. On to `Cc1ccc(C(=O)N2CC3(CCCCC3)c3cc(C(=O)O)ccc32)cn1`, for which the cytotoxicity at 70.5 h is 0.0823%.

For the compound `O=C(C1CCC1)N1CCC2(CCN(Cc3cccc(F)c3)CC2)CC1`, the cytotoxicity at 70.5 h was found to be 18.6%. As to `O=C(NC1CCCC1)[C@H]1CC[C@@H]2[C@@H](CCN2c2ncc(F)cn2)O1`, the cytotoxicity at 70.5 h is 13.4%. Under `CC(=O)N1CCCC2(CN(Cc3ccc(C)s3)CCO2)C1` (stereo not given) stands 0.871%.

`O=C(NC1CC1)N1CC[C@H](OCC2CC2)[C@@H]1Cc1cccnc1`: the cytotoxicity at 70.5 h was 1.68%. In the case of `O=C1CC2(CCCCN2C(=O)Cc2ccccc2)CN1c1cccnc1` (stereo not given) it was -1.11%; in that of `O=C(N1CCOCC1)N1CCc2ncnc(Oc3cccnc3)c2CC1`, -2.03%; in that of `O=C(c1ccco1)N1CCc2ncnc(Oc3cccnc3)c2CC1`, -0.464%.

As to `CCc1cnc(N2CC[C@@H]3CN(CCC(C)C)S(=O)(=O)[C@@H]3CC2)nc1`, the cytotoxicity at 70.5 h is -4.3%. In the case of `CN(C)C(=O)CN1C[C@H]2CCN(c3ncccn3)CC[C@H]2S1(=O)=O` it was -0.338%; in that of `O=C(NCc1cccs1)C1CNCC12CCOCC2` (stereo not given), 0.759%; in that of `CN1CCC2(CCN(Cc3nccs3)CC2)C1=O`, -1.5%. As for `COCCNC(=O)[C@@H]1CC[C@@H]2[C@@H](CCN2c2ncc(F)cn2)O1`, the cytotoxicity at 70.5 h is -3.55%. With `COc1ccccc1CN1CC[C@]2(C[C@H](OC)CO2)C1`, the cytotoxicity at 70.5 h is -12.6%. Under `CN1CCC2(COCc3cnc(N4CCOCC4)nc32)C1` (stereo not given) stands -16.8%.

Turning to `O=C(NC[C@]12COC[C@H]1CN(Cc1nccs1)C2)c1ccccc1`, the cytotoxicity at 70.5 h is -15%. In the case of `Cc1cccc(CN2CCC3(CCCN(C(=O)NC4CC4)C3)C2=O)n1` (stereo not given) it was 25.5%.

Turning to `Cc1ccoc1C(=O)N1C[C@@H]2[C@@H](C1)OCC(=O)N2Cc1cccnc1`, the cytotoxicity at 70.5 h amounted to 29.7%. Under `c1ccc(N2CCOC3(CCCN(c4nncs4)C3)C2)nc1` (stereo not given) stands -2.74%. Under `Cc1cccc(CN2CCC3(CCCN(C(=O)c4ccsc4)C3)C2=O)n1` (stereo not given) stands 5.46%; under `CNC(=O)c1cc2c(nc1N(C)C)CCN(S(=O)(=O)C1CC1)CC2`, 20.2%.

Regarding `O=C(c1cccnc1)N1CCC2(CC1)CCN(c1ccsc1)C2=O`, the cytotoxicity at 70.5 h was -4.42%. Under `Cc1noc([C@H]2C[C@@H]3CCN(CC4CC4)C[C@H]3O2)n1` stands -7.86%. In the case of `CNC(=O)c1cc2c(nc1N(C)C)CCN(S(=O)(=O)CC(C)C)CC2`, the cytotoxicity at 70.5 h is -12.2%. Under `COCC1CN(Cc2ccc(C)o2)Cc2cnn(CC3CCOCC3)c21` (stereo not given) stands 6.49%; under `c1cncc(COCc2nnc3n2CCN(Cc2ccco2)C3)c1`, 1.97%. Under `c1ccc(O[C@@H]2CC[C@H]3[C@H]2OCCN3CC2CCOCC2)nc1` stands 1.68%. As to `c1ccc(CO[C@H]2CC[C@H]3[C@H]2OCCN3Cc2nccs2)nc1`, the cytotoxicity at 70.5 h stood at 1.15%. Under `Cc1cccc(CN2CCC3(CCN(c4cccnc4)C3=O)C2)n1` (stereo not given) stands 2.95%. Under `Cc1noc(C)c1CN1CCO[C@H]2[C@H](Oc3ccccn3)CC[C@@H]21` stands -0.309%; under `c1ccc(O[C@@H]2CN(Cc3nccs3)[C@@H]3CCCO[C@@H]32)nc1`, 1.57%. Under `O=C1N(c2cccnc2)CCC12CCCN(Cc1ccco1)C2` (stereo not given) stands -3.89%. For `COc1ccc(CN2CCO[C@H]3[C@H](Oc4ccccn4)CC[C@@H]32)cc1`, the cytotoxicity at 70.5 h is -2.38%.

As to `CC(=O)N1[C@H](Cn2cncn2)C[C@@H]2CN(Cc3ccncc3)CC[C@@H]21`, the cytotoxicity at 70.5 h is -3.75%. In the case of `CN1CCN(Cc2cn3c(n2)CN(C(=O)c2cccn2C)CC3)CC1` it was -4.16%; in that of `Cn1cnc2c(N3CCCC3)nc(C3CCN(CC4CC4)CC3)cc21`, -0.352%. For `O=C(N1CCOCC1)[C@@]12CCO[C@@H]1CCN(CCN1CCCCC1)C2`, the cytotoxicity at 70.5 h is -20.4%. Regarding `Cn1cc(CN2C[C@@H]3CN(Cc4ccoc4)CCO[C@@H]3C2)cn1`, the cytotoxicity at 70.5 h is -3.44%. Under `O=C1N(c2cccnc2)CCC12CCCN(Cc1cccnc1)C2` (stereo not given) stands -4.25%. In the case of `CO[C@H]1CCN(Cc2ccccn2)[C@@H]2CN(Cc3ccco3)C[C@H]12` it was -20.1%; in that of `CN1CC(=O)N(c2cccc(F)c2)CC12CCN(Cc1cccnc1)C2` (stereo not given), 3.06%.

For `CCOC(=O)[C@]12CCCN(Cc3nccs3)C[C@H]1CN(CCN(C)C)C2`, the cytotoxicity at 70.5 h was -10.1%.
